Measured values: PMC8549013 (Neuropharmacology, 2021)

Experiments:
hDAT = settings: same technique, ref Steele and Eltit, 2019; cited from earlier work
wt hDAT = wt hDAT (Homo sapiens, UniProt Q01959); assay: MAT-Ca2+ assay: inhibition of DA-induced Ca2+ signals; format: cell-based; settings: DA 10 μM; for pIC50 ± SEM: ~35°C, Table 2
wt dDAT = wt dDAT (Drosophila melanogaster, UniProt Q7K4Y6); assay: as above; format: cell-based; settings: DA 10 μM; for pIC50 ± SEM: bottom of fit constrained to zero for MDPV
[1] = target: A117S/D121G/P323V dDAT (triple dDAT mutant) (Drosophila melanogaster, UniProt Q7K4Y6, A117S/D121G/P323V); assay: as above; format: cell-based
[2] = target: A117S/D121G/P323V/F318C dDAT (quadruple dDAT mutant) (Drosophila melanogaster, UniProt Q7K4Y6, A117S/D121G/F318C/P323V); assay: as above; format: cell-based
NET = settings: rat brain synaptosomes; ref Gannon et al., 2018; cited from earlier work
P323V dDAT mutant = P323V dDAT mutant (Drosophila melanogaster, UniProt Q7K4Y6, P323V); assay: MAT-Ca2+ assay: inhibition of DA-induced Ca2+ signals; format: cell-based
A117S dDAT mutant = A117S dDAT mutant (Drosophila melanogaster, UniProt Q7K4Y6, A117S); assay: as above; format: cell-based
F318C dDAT mutant = F318C dDAT mutant (Drosophila melanogaster, UniProt Q7K4Y6, F318C); assay: as above; format: cell-based
D121G dDAT mutant = D121G dDAT mutant (Drosophila melanogaster, UniProt Q7K4Y6, D121G); assay: as above; format: cell-based
A117S/D121G dDAT mutant = A117S/D121G dDAT mutant (Drosophila melanogaster, UniProt Q7K4Y6, A117S/D121G); assay: as above; format: cell-based
[3] = tested on: human dopamine transporter (hDAT); settings: ref Baumann et al., 2013; Cameron et al., 2013b; Steele and Eltit, 2019; cited from earlier work
[4] = Table 2 dataset, with DA pre-pulse
[5] = Table 1 dataset, without DA pre-pulse

## NCCc1ccc(O)c(O)c1 [DA, dopamine]
hDAT
  pEC50 of DA to produce Ca2+ signals: 5.89 ± 0.04

## CC(C(=O)c1ccc2c(c1)OCO2)N1CCCC1 (stereo not drawn) [MDPPP, 3,4-methylenedioxy-α-pyrrolidinopropiophenone]
Wt hDAT
  IC50: 3420 nM
  pIC50 ± SEM: 5.47 ± 0.02 M
Wt dDAT
  IC50: > 30000 nM
  pIC50 ± SEM: Inactive
[1]; [4]
  IC50: 16000 nM
  pIC50 ± SEM: 4.80 ± 0.02 M
[2]; [4]
  IC50: 13000 nM
  pIC50 ± SEM: 4.89 ± 0.01 M
NET
  weaker inhibiting uptake at NET than at DAT: ~ 5 fold

## CCCC(C(=O)c1ccc2c(c1)OCO2)N1CCCC1 (stereo not drawn) [MDPV, 3,4-Methylenedioxypyrovalerone]
Wt hDAT
  IC50: 34 nM
  pIC50 ± SEM: 7.47 ± 0.01 M
Wt dDAT
  IC50: 27400 nM
  pIC50 ± SEM: 4.56 ± 0.02 M
P323V dDAT mutant; P323V dDAT
  IC50: 9690 nM
  pIC50 ± SEM: 5.01 ± 0.03 M
P323V dDAT mutant; P323V dDAT vs wt dDAT
  improvement in potency vs wt dDAT: ~ 3 fold
A117S dDAT mutant; A117S dDAT
  IC50: 8390 nM
  pIC50 ± SEM: 5.08 ± 0.04 M
A117S dDAT mutant; A117S dDAT vs wt dDAT
  improvement in potency vs wt dDAT: ~ 3 fold
F318C dDAT mutant; F318C dDAT
  IC50: 8240 nM
  pIC50 ± SEM: 5.08 ± 0.02 M
F318C dDAT mutant; F318C dDAT vs wt dDAT
  improvement in potency vs wt dDAT: ~ 3 fold
D121G dDAT mutant
  IC50: 4650 nM
  pIC50 ± SEM: 5.33 ± 0.04 M
A117S/D121G dDAT mutant
  IC50: 2210 nM
  pIC50 ± SEM: 5.66 ± 0.04 M
[1]; Table 1 dataset
  IC50: 1180 nM
[1]; [5]
  IC50: 1180 nM
  pIC50 ± SEM: 5.93 ± 0.02 M
[1]; Table 2 dataset
  IC50: 1210 nM
[1]; [4]
  IC50: 1210 nM
  pIC50 ± SEM: 5.92 ± 0.02 M
[2]; Table 1 dataset
  IC50: 250 nM
[2]; [5]
  IC50: 253 nM
  pIC50 ± SEM: 6.60 ± 0.03 M
[2]; [4]
  IC50: 251 nM
  pIC50 ± SEM: 6.60 ± 0.04 M
NET
  weaker inhibiting uptake at NET than at DAT: ~ 4 fold
[3]
  more potent than cocaine in blocking DA uptake through DAT: ~ 50 fold

## CCCC(C(=O)c1ccccc1)N1CCCC1 (stereo not drawn) [α-PVP, α-pyrrolidinovalerophenone]
Wt hDAT
  IC50: 51 nM
  pIC50 ± SEM: 7.29 ± 0.01 M
Wt dDAT
  IC50: 20700 nM
  pIC50 ± SEM: 4.68 ± 0.03 M
[1]; Table 2 dataset
  IC50: 1530 nM
[1]; [4]
  IC50: 1530 nM
  pIC50 ± SEM: 5.82 ± 0.03 M
[2]; Table 2 dataset
  IC50: 1090 nM
[2]; [4]
  IC50: 1090 nM
  pIC50 ± SEM: 5.96 ± 0.03 M
NET
  weaker inhibiting uptake at NET than at DAT: equipotent
